Tested on: SK-BR-3
Assay: Cytotoxicity against human SKBR3 cells after 72 hrs by celltiter-glo assay
Type: functional, cell-based
Details: Homo sapiens, SK-BR-3, 72 h

SMILES	IC50 [µM]
C=CCNC1=C2C[C@@H](C)C[C@H](OC)[C@H](O)[C@@H](C)/C=C(\C)[C@H](OC(N)=O)[C@@H](OC)/C=C\C=C(/C)C(=O)NC(=CC1=O)C2=O [TANESPIMYCIN]	0.033
CO[C@H]1/C=C\C=C(/C)C(=O)NC2=CC(=O)C(NCCF)=C(C[C@@H](C)C[C@H](OC)[C@H](OC(=O)CN)[C@@H](C)/C=C(\C)[C@@H]1OC(N)=O)C2=O (stereo in doubt)	0.11
COC1=C2C[C@@H](C)C[C@H](OC)[C@H](OC)[C@@H](C)/C=C(\C)[C@H](OC(N)=O)[C@@H](OC)/C=C\C=C(/C)C(=O)NC(=CC1=O)C2=O	0.0091
CO[C@H]1/C=C\C=C(/C)C(=O)NC2=CC(=O)C(NCCF)=C(C[C@@H](C)C[C@H](OC)[C@H](O)[C@@H](C)/C=C(\C)[C@@H]1OC(N)=O)C2=O (stereo in doubt)	0.017
CO[C@H]1C[C@H](C)CC2=C(NCCN(C)C)C(=O)C=C(NC(=O)/C(C)=C/C=C\[C@H](OC)[C@@H](OC(N)=O)/C(C)=C/[C@H](C)/C1=N\OCc1ccccc1)C2=O (stereo in doubt)	0.48
CO[C@H]1C[C@H](C)CC2=C(NCCF)C(=O)C=C(NC(=O)/C(C)=C/C=C\[C@H](OC)[C@@H](OC(N)=O)/C(C)=C/[C@H](C)/C1=N\O)C2=O	> 1
CO[C@H]1C[C@H](C)CC2=C(NCCN(C)C)C(=O)C=C(NC(=O)/C(C)=C/C=C\[C@H](OC)[C@@H](OC(N)=O)/C(C)=C/[C@H](C)C1=O)C2=O (stereo in doubt)	0.1
C=CCNC1=C2C[C@@H](C)C[C@H](OC)C(=O)[C@@H](C)/C=C(\C)[C@H](OC(N)=O)[C@@H](OC)/C=C\C=C(/C)C(=O)NC(=CC1=O)C2=O (stereo in doubt)	0.45
CO[C@H]1/C=C\C=C(/C)C(=O)NC2=CC(=O)C(NCCN(C)C)=C(C[C@@H](C)C[C@H](OC)[C@H](OC(=O)NN)[C@@H](C)/C=C(\C)[C@@H]1OC(N)=O)C2=O	> 1
CO[C@H]1C[C@H](C)CC2=C(NCCN(C)C)C(=O)C=C(NC(=O)/C(C)=C/C=C\[C@H](OC)[C@@H](OC(N)=O)/C(C)=C/[C@H](C)/C1=N\OCCN(C)C)C2=O (stereo in doubt)	2.5
CO[C@H]1/C=C\C=C(/C)C(=O)NC2=CC(=O)C(NCCN3CCCC3)=C(C[C@@H](C)C[C@H](OC)[C@H](O)[C@@H](C)/C=C(\C)[C@@H]1OC(N)=O)C2=O (stereo in doubt)	0.07
C=CCNC1=C2C[C@@H](C)C[C@H](OC)/C(=N/O)[C@@H](C)/C=C(\C)[C@H](OC(N)=O)[C@@H](OC)/C=C\C=C(/C)C(=O)NC(=CC1=O)C2=O	0.35
CO[C@H]1C[C@H](C)CC2=C(NCCF)C(=O)C=C(NC(=O)/C(C)=C/C=C\[C@H](OC)[C@@H](OC(N)=O)/C(C)=C/[C@H](C)C1=O)C2=O (stereo in doubt)	0.17
CO[C@H]1C[C@H](C)CC2=C(N3CCC3)C(=O)C=C(NC(=O)/C(C)=C/C=C\[C@H](OC)[C@@H](OC(N)=O)/C(C)=C/[C@H](C)/C1=N\O)C2=O	0.31

Same assay, conditions: sk-br-3

SMILES	IC50 [µM]
COC1=C2C[C@@H](C)C[C@H](OC)[C@H](O)[C@@H](C)/C=C(\C)[C@H](OC(N)=O)[C@@H](OC)/C=C\C=C(/C)C(=O)NC(=CC1=O)C2=O [GELDANAMYCIN]	0.041

Target: Heat shock protein HSP 90-beta (Homo sapiens, UniProt P08238)
Assay: Binding affinity to human recombinant HSP90
Details: not given

Sequence of Heat shock protein HSP 90-beta (P08238 whole entry): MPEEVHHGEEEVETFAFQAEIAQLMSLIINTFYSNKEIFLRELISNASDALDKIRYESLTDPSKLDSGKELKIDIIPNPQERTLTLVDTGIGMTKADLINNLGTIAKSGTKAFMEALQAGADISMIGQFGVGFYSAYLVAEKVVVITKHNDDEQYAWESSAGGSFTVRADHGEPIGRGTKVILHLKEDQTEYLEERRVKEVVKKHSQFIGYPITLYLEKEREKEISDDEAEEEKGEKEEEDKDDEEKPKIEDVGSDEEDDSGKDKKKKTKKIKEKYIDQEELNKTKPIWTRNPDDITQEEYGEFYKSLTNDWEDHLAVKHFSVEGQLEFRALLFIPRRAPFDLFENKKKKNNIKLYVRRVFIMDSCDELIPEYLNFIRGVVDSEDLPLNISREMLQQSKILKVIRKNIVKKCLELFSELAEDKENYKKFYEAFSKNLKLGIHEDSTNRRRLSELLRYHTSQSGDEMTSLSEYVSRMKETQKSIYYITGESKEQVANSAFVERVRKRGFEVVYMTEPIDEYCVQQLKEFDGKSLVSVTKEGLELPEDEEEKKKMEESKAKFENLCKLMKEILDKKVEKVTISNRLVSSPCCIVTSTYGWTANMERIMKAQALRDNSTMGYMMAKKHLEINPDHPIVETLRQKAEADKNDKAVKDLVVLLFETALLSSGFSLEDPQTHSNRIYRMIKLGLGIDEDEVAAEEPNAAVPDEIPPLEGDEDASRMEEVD

Kd [µM]	IC50 [µM]	SMILES
> 100	–	CO[C@H]1C[C@H](C)CC2=C(NCCN(C)C)C(=O)C=C(NC(=O)/C(C)=C/C=C\[C@H](OC)[C@@H](OC(N)=O)/C(C)=C/[C@H](C)/C1=N\OCc1ccccc1)C2=O (stereo in doubt)
1.8	–	CO[C@H]1C[C@H](C)CC2=C(NCCN(C)C)C(=O)C=C(NC(=O)/C(C)=C/C=C\[C@H](OC)[C@@H](OC(N)=O)/C(C)=C/[C@H](C)C1=O)C2=O (stereo in doubt)
3.3	–	C=CCNC1=C2C[C@@H](C)C[C@H](OC)C(=O)[C@@H](C)/C=C(\C)[C@H](OC(N)=O)[C@@H](OC)/C=C\C=C(/C)C(=O)NC(=CC1=O)C2=O (stereo in doubt)
–	0.005	CO[C@H]1/C=C\C=C(/C)C(=O)NC2=CC(=O)C(NCCN(C)C)=C(C[C@@H](C)C[C@H](OC)[C@H](OC(=O)NN)[C@@H](C)/C=C(\C)[C@@H]1OC(N)=O)C2=O
> 100	–	CO[C@H]1C[C@H](C)CC2=C(NCCN(C)C)C(=O)C=C(NC(=O)/C(C)=C/C=C\[C@H](OC)[C@@H](OC(N)=O)/C(C)=C/[C@H](C)/C1=N\OCCN(C)C)C2=O (stereo in doubt)
> 10	–	C=CCNC1=C2C[C@@H](C)C[C@H](OC)/C(=N/O)[C@@H](C)/C=C(\C)[C@H](OC(N)=O)[C@@H](OC)/C=C\C=C(/C)C(=O)NC(=CC1=O)C2=O
2.6	–	CO[C@H]1C[C@H](C)CC2=C(NCCF)C(=O)C=C(NC(=O)/C(C)=C/C=C\[C@H](OC)[C@@H](OC(N)=O)/C(C)=C/[C@H](C)C1=O)C2=O (stereo in doubt)
> 25	–	CO[C@H]1C[C@H](C)CC2=C(N3CCC3)C(=O)C=C(NC(=O)/C(C)=C/C=C\[C@H](OC)[C@@H](OC(N)=O)/C(C)=C/[C@H](C)/C1=N\O)C2=O

SMILES	Kd [µM]	IC50 [µM]
CO[C@H]1/C=C\C=C(/C)C(=O)NC2=CC(=O)C(NCCF)=C(C[C@@H](C)C[C@H](OC)[C@H](OC(=O)CN)[C@@H](C)/C=C(\C)[C@@H]1OC(N)=O)C2=O (stereo in doubt)	> 25	–
COC1=C2C[C@@H](C)C[C@H](OC)[C@H](OC)[C@@H](C)/C=C(\C)[C@H](OC(N)=O)[C@@H](OC)/C=C\C=C(/C)C(=O)NC(=CC1=O)C2=O	0.49	–
CO[C@H]1/C=C\C=C(/C)C(=O)NC2=CC(=O)C(NCCF)=C(C[C@@H](C)C[C@H](OC)[C@H](O)[C@@H](C)/C=C(\C)[C@@H]1OC(N)=O)C2=O (stereo in doubt)	0.8	–
CO[C@H]1C[C@H](C)CC2=C(NCCF)C(=O)C=C(NC(=O)/C(C)=C/C=C\[C@H](OC)[C@@H](OC(N)=O)/C(C)=C/[C@H](C)/C1=N\O)C2=O	> 25	–
CO[C@H]1/C=C\C=C(/C)C(=O)NC2=CC(=O)C(NCCN3CCCC3)=C(C[C@@H](C)C[C@H](OC)[C@H](O)[C@@H](C)/C=C(\C)[C@@H]1OC(N)=O)C2=O (stereo in doubt)	0.4	–

Source: ChEMBL document CHEMBL1138518 (J Med Chem, 2009)
